# Measurements as given in US20100168434A1, “INHIBITION OF POLYMERISATION” (priority 2005, published 2010).
# Columns and labels:
# [1] = Continuous stirred tank reactor (CSTR) styrene polymerisation inhibition; conditions: CSTR 110° C., inhibitor 75 ppm; for Polymer level at steady state: nitrogen sparging
# Protocol: The evaluation of the efficacy of a selection of nitroxide compounds of the invention was carried out using a continuous stirred tank reactor (CSTR) which mimicked the re-boiler of a styrene distillation column. […] Data gathered after this point was averaged to give the steady state polymer level. Nitrogen sparging to remove oxygen gas was carried out at a measured rate of 200 ml/minute. Apart from the inhibitors, the only variable was the inherent variation in the rate of thermal initiation of styrene polymerisation.
# [2] = Sealed-tube polymerisation inhibition, vinyl acetate monomer; conditions: degassed with nitrogen, 160° C. for 48 hours, inhibitor 25 ppm
# Protocol: (§1) The efficacy of various inhibitors was evaluated with respect to the monomers vinyl acetate, acrylonitrile, 2-ethylhexyl acrylate and isoprene. The efficacy of each inhibitor was determined by heating in pure monomer or a solution of monomer in a suitable solvent(s) for a set time and at a known temperature. The storage inhibitor was removed from each monomer by distillation or treatment with neutral silica. In each of the tables below, the amount of polymer generated is expressed as % w/w of the monomer.
# In this case, the tubes and solution were degassed with nitrogen prior to sealing and heating at 160° C. for 48 hours.
# [3] = Tube polymerisation inhibition, acrylonitrile monomer; conditions: 120° C. for 7 days, air not removed, inhibitor 10 ppm
# Protocol: as §1
# Similarly, tubes containing acrylonitrile and various inhibitors were heated at 120° C. for 7 days. The air was not removed from these solutions prior to heating.
# [4] = Tube inhibition time, 2-ethylhexyl acrylate monomer; conditions: 145° C., 5 ppm inhibitor, time to appearance of insoluble polymer
# Protocol: as §1
# Similarly, tubes containing 5 ppm inhibitor in 2-ethylhexyl acrylate were heated at 145° C. and the results expressed as inhibition time (i.e. the time to appearance of insoluble polymer). Data were generated in nitrogen and in the presence of air.
# [5] = Tube polymerisation inhibition, isoprene monomer; conditions: 100 ppm inhibitor, 160° C. for 1 hr
# Protocol: as §1
# Similarly tubes containing 100 ppm inhibitor in a solution of Isoprene in dimethylformamide containing 1 or 3% furfural were heated at 160° C. for 1 hr. […] The results are expressed as ppm insoluble polymer.
# [6] = Solubility in water and toluene (saturated solutions, amount dissolved)
# [7] = Solubility of inhibitors/retarders in styrene with and without 4-butoxy-TEMPO; conditions: in 4-butoxy-TEMPO plus styrene, 20° C.
# Protocol: Saturated solutions of the inhibitors/retarders phenothiazine and 4-methoxyphenol were prepared in 4-butoxy-TEMPO. These saturated solutions were then added to styrene so that the concentration of each inhibitor/retarder was above the solubility limit for that material in styrene alone.
molecule,measurement,setting,value
"2,2,6,6-tetramethylpiperidine-1-oxide [TEMPO]",Polymer level at steady state,[1],213 ppm
"4-butoxy-2,2,6,6-tetramethylpiperidine-1-oxide [4-butoxy-TEMPO]",Polymer level at steady state,[1],341 ppm
same,Polymer,[2],19 % w/w
same,Polymer,[3],0.06 % w/w
same,Inhibition time in air,[4]; air,40 min
same,Inhibition time in nitrogen,[4]; nitrogen,350 min
same,"Insoluble polymer, 1% Furfural",[5]; isoprene in dimethylformamide with 1% furfural,2.2 ppm
same,"Insoluble polymer, 3% Furfural",[5]; isoprene in dimethylformamide with 3% furfural,5.3 ppm
"4-hydroxy-2,2,6,6-tetramethylpiperidine-1-oxide [4-hydroxy-TEMPO]",Polymer level at steady state,[1],180 ppm
same,Polymer,[3],0.18 % w/w
"4-oxo-2,2,6,6-tetramethylpiperidine-1-oxide [4-oxo-TEMPO]",Solubility in toluene,[6]; saturated solution in toluene,>80 % wt/wt
same,Solubility in water,[6]; saturated solution in water,22.5 % wt/wt
C=CCOC1CC(C)(C)N([O])C(C)(C)C1 [4-allyloxy-TEMPO],Polymer level (at 120 mins),[1]; at 120 mins (not steady state),15199 (at 120 mins) ppm
COC1CC(C)(C)N([O])C(C)(C)C1 [4-methoxy-TEMPO],Polymer level at steady state,[1],172 ppm
"c1ccc2c(c1)Nc1ccccc1S2 [Phenothiazine, phenothiazine]",Polymer,[2],35 % w/w
same,"Soluble amount, Wt % test material (with respect to styrene)",[7],7.0 Wt %
